Source: patent US9303027B2 (dated 2016)

- melting point: 137 to 139 °C
SMILES: O=C(N[C@H](CN1CCCC1)c1ccccc1)C1(c2cccc(-c3nnn[nH]3)c2)CC1 (stereo in doubt)
